Assay results reported in patent publication US9815796B2 (Merck Sharp & Dohme Corp., priority 2013, dated 2017).
Read-outs that look alike come from different tables or passages of the source.

Experiments:
Rhesus PDE2A3 = Rhesus PDE2A3 (Macaca mulatta, UniProt B3VTJ2); test: PDE2 fluorescence polarization (IMAP FP) inhibition assay, rhesus enzyme; format: biochemical, rhesus macaque
In short: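 Rhesus PDE2A3 came from lysate of transiently transfected AD293 cells, diluted to give 20% substrate conversion. Substrate was 50 nM FAM-cAMP with 1 uM cGMP activator in Tris pH 7.2/MgCl2 buffer, run 60 min at room temperature over 10-point 3-fold dilutions in 1% DMSO. Read-out was IMAP fluorescence polarization (mP) after ≥1 h binding.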

human PDE2A1 = human PDE2A1 (Homo sapiens (Human), UniProt O00408); test: IMAP FP PDE selectivity panel, human PDE2A1; format: biochemical
human PDE2A1, sequence (O00408 other isoform, or with tags, fused parts or gaps): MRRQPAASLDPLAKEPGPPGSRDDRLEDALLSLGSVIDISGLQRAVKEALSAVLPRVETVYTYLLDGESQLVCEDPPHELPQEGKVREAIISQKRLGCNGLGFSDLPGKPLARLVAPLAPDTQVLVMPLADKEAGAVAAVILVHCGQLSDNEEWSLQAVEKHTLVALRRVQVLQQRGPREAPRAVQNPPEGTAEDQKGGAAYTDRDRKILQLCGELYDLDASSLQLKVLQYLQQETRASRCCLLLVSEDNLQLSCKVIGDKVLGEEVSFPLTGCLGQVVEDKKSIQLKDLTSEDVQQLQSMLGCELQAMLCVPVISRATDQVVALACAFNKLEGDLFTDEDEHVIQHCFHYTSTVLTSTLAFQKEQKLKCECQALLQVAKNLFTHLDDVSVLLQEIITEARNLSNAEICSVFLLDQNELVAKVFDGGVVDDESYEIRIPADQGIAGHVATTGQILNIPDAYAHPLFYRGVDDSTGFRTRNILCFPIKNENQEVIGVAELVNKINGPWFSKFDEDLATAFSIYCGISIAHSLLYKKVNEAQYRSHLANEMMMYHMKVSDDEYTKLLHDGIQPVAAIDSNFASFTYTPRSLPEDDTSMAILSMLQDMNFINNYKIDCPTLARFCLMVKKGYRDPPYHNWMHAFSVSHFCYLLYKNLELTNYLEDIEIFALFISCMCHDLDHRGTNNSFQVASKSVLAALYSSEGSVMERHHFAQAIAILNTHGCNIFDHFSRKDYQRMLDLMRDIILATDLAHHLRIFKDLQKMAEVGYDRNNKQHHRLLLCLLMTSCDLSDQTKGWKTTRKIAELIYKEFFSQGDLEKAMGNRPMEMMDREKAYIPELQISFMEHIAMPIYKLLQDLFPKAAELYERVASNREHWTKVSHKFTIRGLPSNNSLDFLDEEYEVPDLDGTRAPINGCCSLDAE
In short: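 GST-tagged human PDE2A1 expressed in insect cells, run at room temperature for 60 min with 50 nM FAM-cAMP containing 1000 nM cGMP, pH 7.2 Tris/MgCl2 buffer. IMAP fluorescence polarization read after binding step.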

[1] = Rhesus PDE2, Lab A, read-out: Rhesus PDE2 Ki (nM) - Lab A
[2] = Human PDE2, Lab A, read-out: Human PDE2 Ki (nM) - Lab A
[3] = Rhesus PDE2, Lab B, read-out: Rhesus PDE2 Ki (nM) - Lab B
[4] = Human PDE2, Lab B, read-out: Human PDE2 Ki (nM) - Lab B

Rhesus PDE2A3, sequence (B3VTJ2 1-941): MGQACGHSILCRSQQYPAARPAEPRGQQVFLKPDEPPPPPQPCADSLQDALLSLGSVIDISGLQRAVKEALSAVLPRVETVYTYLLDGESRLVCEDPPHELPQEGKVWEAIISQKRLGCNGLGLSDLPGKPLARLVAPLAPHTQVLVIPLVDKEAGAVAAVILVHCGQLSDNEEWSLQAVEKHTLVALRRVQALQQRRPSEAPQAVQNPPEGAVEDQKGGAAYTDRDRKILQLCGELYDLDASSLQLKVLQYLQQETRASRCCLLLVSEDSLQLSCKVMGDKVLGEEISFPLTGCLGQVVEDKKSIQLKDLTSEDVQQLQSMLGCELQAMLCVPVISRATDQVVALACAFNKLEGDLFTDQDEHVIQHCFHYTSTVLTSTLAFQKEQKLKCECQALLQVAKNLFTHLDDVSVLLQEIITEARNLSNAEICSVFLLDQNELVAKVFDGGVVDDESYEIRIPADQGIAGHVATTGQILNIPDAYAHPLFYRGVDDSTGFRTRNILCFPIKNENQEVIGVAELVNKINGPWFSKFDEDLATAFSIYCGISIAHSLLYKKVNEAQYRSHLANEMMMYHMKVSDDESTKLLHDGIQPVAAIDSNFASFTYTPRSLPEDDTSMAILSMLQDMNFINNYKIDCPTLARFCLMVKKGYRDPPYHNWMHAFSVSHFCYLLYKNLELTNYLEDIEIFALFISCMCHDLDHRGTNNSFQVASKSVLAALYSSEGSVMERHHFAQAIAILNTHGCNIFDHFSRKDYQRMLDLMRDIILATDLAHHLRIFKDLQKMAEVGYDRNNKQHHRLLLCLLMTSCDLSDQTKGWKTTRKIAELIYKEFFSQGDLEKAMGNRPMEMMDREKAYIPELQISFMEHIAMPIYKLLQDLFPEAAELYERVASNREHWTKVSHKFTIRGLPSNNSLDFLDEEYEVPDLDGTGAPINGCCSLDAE

Compound	Ki (human PDE2A1; [4])	also measured
O=C(N[C@@H](c1ccc(SC(F)(F)F)cc1)C1CC1)c1cc(=O)[nH]c(C2CC2)n1 [Example 214, 2-cyclopropyl-N-[(R)-cyclopropyl{4-[(trifluoromethyl)sulfanyl]phenyl}methyl]-6-oxo-1,6-dihydropyrimidine-4-carboxamide]		Ki (Rhesus PDE2A3; [1]): 5 nM; Ki (human PDE2A1; [2]): 2.4 nM
Cc1nc(C(=O)NC2(c3ccc(C(F)(F)F)cc3)CCC2)cc(=O)[nH]1 [Example 2, 2-methyl-6-oxo-N-{1-[4-(trifluoromethyl)phenyl]cyclobutyl}-1,6-dihydropyrimidine-4-carboxamide]		Ki (Rhesus PDE2A3; [1]): 38 nM; Ki (human PDE2A1; [2]): 24 nM
Cc1nc(C(=O)N[C@H](C)c2ccc(OC(F)(F)F)cc2)cc(=O)[nH]1 [Example 9, 2-methyl-6-oxo-N-{(1R)-1-[4-(trifluoromethoxy)phenyl]ethyl}-1,6-dihydropyrimidine-4-carboxamide]		Ki (Rhesus PDE2A3; [1]): 21 nM; Ki (human PDE2A1; [2]): 16 nM
Cc1nc(C(=O)N[C@H](C)c2ccc3ccccc3c2)cc(=O)[nH]1 [Example 16, 2-methyl-N-[(1R)-1-naphthalen-2-ylethyl]-6-oxo-1,6-dihydropyrimidine-4-carboxamide]		Ki (Rhesus PDE2A3; [1]): 74 nM; Ki (human PDE2A1; [2]): 67 nM
COc1ccc(Cc2nc(C(=O)N[C@@H](c3ccc(C(F)(F)F)c(F)c3)C3CC3)cc(=O)[nH]2)cc1F [Example 522, N-{(R)-cyclopropyl[3-fluoro-4-(trifluoromethyl)phenyl]methyl}-2-(3-fluoro-4-methoxybenzyl)-6-oxo-1,6-dihydropyrimidine-4-carboxamide]	2.6 nM	Ki (Rhesus PDE2A3; [3]): 2.9 nM
CC(C)[C@@H](NC(=O)c1cc(=O)[nH]c(-c2ccccc2)n1)c1ccc(C(F)(F)F)cc1 [Example 167, N-{(1R)-2-methyl-1-[4-(trifluoromethyl)phenyl]propyl}-6-oxo-2-phenyl-1,6-dihydropyrimidine-4-carboxamide]	2.3 nM	Ki (Rhesus PDE2A3; [1]): 2.3 nM; Ki (Rhesus PDE2A3; [3]): 3.5 nM; Ki (human PDE2A1; [2]): 1.9 nM
CC(NC(=O)c1cc(=O)[nH]c(-c2ccccc2)n1)c1ccc(C(C)(C)C(F)(F)F)cc1 (single isomer, unassigned) [Example 699, (R)- or (S)-6-oxo-2-phenyl-N-(1-(4-(1,1,1-trifluoro-2-methylpropan-2-yl)phenyl)ethyl)-1,6-dihydropyrimidine-4-carboxamide]	103 nM	
Cc1nc(C(=O)N[C@@H](c2ccc(OC(F)F)c(F)c2)C2(C)CC2)cc(=O)[nH]1 [Example 631, N-[(R)-[4-(difluoromethoxy)-3-fluorophenyl](1-methylcyclopropyl)methyl]-2-methyl-6-oxo-1,6-dihydropyrimidine-4-carboxamide]	13 nM	
C[C@](CO)(NC(=O)c1cc(=O)[nH]c(-c2ccccc2)n1)c1ccc(C(F)(F)F)cc1Cl [Example 643, N-{(1S)-1-[2-chloro-4-(trifluoromethyl)phenyl]-2-hydroxy-1-methylethyl}-6-oxo-2-phenyl-1,6-dihydropyrimidine-4-carboxamide]	0.5 nM	
CC(C)c1ccc(C2(NC(=O)c3cc(=O)[nH]c(-c4ncccn4)n3)CC2)cc1 [Example 576, N-{1-[4-(1-methylethyl)phenyl]cyclopropyl}-6-oxo-1,6-dihydro-2,2′-bipyrimidine-4-carboxamide]	32 nM	
Cc1nc(C(=O)N[C@](C)(CO)c2ccc(C(F)(F)F)cc2)cc(=O)[nH]1 [Example 636, N-{(1S)-2-hydroxy-1-methyl-1-[4-(trifluoromethyl)phenyl]ethyl}-2-methyl-6-oxo-1,6-dihydropyrimidine-4-carboxamide]	19 nM	
Cc1nc(C(=O)N[C@@H](c2ccc(C(F)F)c(F)c2)C2CC2)cc(=O)[nH]1 [Example 651, N-{(R)-cyclopropyl[4-(difluoromethyl)-3-fluorophenyl]methyl}-2-methyl-6-oxo-1,6-dihydropyrimidine-4-carboxamide]	109 nM	
CC(C)(NC(=O)c1cc(=O)[nH]c(-c2ncccn2)n1)c1ccc(C(F)(F)F)cc1F [Example 573, N-{1-[2-fluoro-4-(trifluoromethyl)phenyl]-1-methylethyl}-6-oxo-1,6-dihydro-2,2′-bipyrimidine-4-carboxamide]	88 nM	
CC(C)(C)[C@@H](NC(=O)c1cc(=O)[nH]c(-c2ncccn2)n1)c1ccc(C2CC2)cc1 [Example 557, N-[(1R)-1-(4-cyclopropylphenyl)-2,2-dimethylpropyl]-6-oxo-1,6-dihydro-2,2′-bipyrimidine-4-carboxamide]	8.9 nM	
O=C(N[C@@H](c1ccc(C2CC2)c(F)c1)C1CC1)c1cc(=O)[nH]c(-c2ccccc2)n1 [Example 546, N-[(R)-cyclopropyl(4-cyclopropyl-3-fluorophenyl)methyl]-6-oxo-2-phenyl-1,6-dihydropyrimidine-4-carboxamide]	3.8 nM	
O=C(NC1(c2ccc3c(c2)OC(F)(F)O3)CC1)c1cc(=O)[nH]c(-c2ncccn2)n1 [Example 571, N-[1-(2,2-difluoro-1,3-benzodioxol-5-yl)cyclopropyl]-6-oxo-1,6-dihydro-2,2′-bipyrimidine-4-carboxamide]	71 nM	
CC(C)C(C)(NC(=O)c1cc(=O)[nH]c(-c2ncccn2)n1)c1ccc(S(F)(F)(F)(F)F)cc1 (centres unmarked) [Example 561, N-{1,2-dimethyl-1-[4-(pentafluoro-λ^6-sulfanyl)phenyl]propyl}-6-oxo-1,6-dihydro-2,2′-bipyrimidine-4-carboxamide]	202 nM	
CC[C@@H](NC(=O)c1cc(=O)[nH]c(C)n1)c1ccc(C(F)F)c(F)c1 [Example 653]	148 nM	
CCC(C)(NC(=O)c1cc(=O)[nH]c(C)n1)c1ccc(C(F)(F)F)cc1 (single isomer, unassigned) [Example 668, (S)- or (R)-2-methyl-N-{1-methyl-1-[4-(trifluoromethyl)phenyl]propyl}-6-oxo-1,6-dihydropyrimidine-4-carboxamide]	67 nM	
Cc1nc(C(=O)N[C@@H](c2ccc(OC(F)(F)F)cc2)C(C)(C)O)cc(=O)[nH]1 [Example 724, N-{(1S)-2-hydroxy-2-methyl-1-[4-(trifluoromethoxy)phenyl]propyl}-2-methyl-6-oxo-1,6-dihydropyrimidine-4-carboxamide]	3.1 nM	
CC(NC(=O)c1cc(=O)[nH]c(-c2ccccc2)n1)c1ccc(C(C)(C)C(F)(F)F)cc1 (single isomer, unassigned) [Example 698, (S)- or (R)-6-oxo-2-phenyl-N-(1-(4-(1,1,1-trifluoro-2-methylpropan-2-yl)phenyl)ethyl)-1,6-dihydropyrimidine-4-carboxamide]	> 2960 nM	
Cc1nc(C(=O)N[C@]2(c3ccc(C(F)(F)F)cc3)C[C@@H]2C)cc(=O)[nH]1 (single isomer, unassigned) [Example 670, 2-methyl-N-{2-methyl-1-[4-(trifluoromethyl)phenyl]cyclopropyl}-6-oxo-1,6-dihydropyrimidine-4-carboxamide]	28 nM	
Cc1nc(C(=O)N[C@@H](c2ccc(OC(F)F)c(F)c2)C2CC2)cc(=O)[nH]1 [Example 629, N-{(R)-cyclopropyl[4-(difluoromethoxy)-3-fluorophenyl]methyl]-2-methyl-6-oxo-1,6-dihydropyrimidine-4-carboxamide]	53 nM	
CC1(c2ccc(C(NC(=O)c3cc(=O)[nH]c(-c4ncccn4)n3)C(C)(C)C)cc2F)CC1 (single isomer, unassigned) [Example 716, (S)- or (R)-N-(1-(3-fluoro-4-(1-methylcyclopropyl)phenyl)-2,2-dimethylpropyl)-6-oxo-1,6-dihydro-[2,2′-bipyrimidine]-4-carboxamide]	> 2960 nM	
CC(NC(=O)c1cc(=O)[nH]c(C2CC2)n1)c1ccc(C(C)(C)C(F)(F)F)cc1 (single isomer, unassigned) [Example 696]	> 2960 nM	
CC(C)(C)[C@@H](NC(=O)c1cc(=O)[nH]c(-c2ncccn2)n1)c1ccc(CC(F)(F)F)cc1 [Example 558, N-[(1R)-2,2-dimethyl-1-[4-(2,2,2-trifluoroethyl)phenyl]propyl}-6-oxo-1,6-dihydro-2,2′-bipyrimidine-4-carboxamide]	35 nM	
Cc1nc(C(=O)N[C@@H](c2ccc(C(F)F)cc2)C2CC2)cc(=O)[nH]1 [Example 649, N-{(1R)-cyclopropyl[4-(difluoromethyl)phenyl]methyl}-2-methyl-6-oxo-1,6-dihydropyrimidine-4-carboxamide]	47 nM	
O=C(NC1(c2ccc(S(F)(F)(F)(F)F)cc2)CC1)c1cc(=O)[nH]c(-c2ncccn2)n1 [Example 570, 6-oxo-N-{1-[4-(pentafluoro-λ^6-sulfanyl)phenyl]cyclopropyl}-1,6-dihydro-2,2′-bipyrimidine-4-carboxamide]	21 nM	
CC(NC(=O)c1cc(=O)[nH]c(-c2ncccn2)n1)c1ccc(C(C)(C)C(F)(F)F)cc1 (single isomer, unassigned) [Example 700, (S)- or (R)-6-oxo-N-(1-(4-(1,1,1-trifluoro-2-methylpropan-2-yl)phenyl)ethyl)-1,6-dihydro-[2,2′-bipyrimidine]-4-carboxamide]	> 2960 nM	
Cc1nc(C(=O)NC2(c3ccc4c(c3)OC(F)(F)O4)CC2)cc(=O)[nH]1 [Example 534, N-[1-(2,2-difluoro-1,3-benzodioxol-5-yl)cyclopropyl]-2-methyl-6-oxo-1,6-dihydropyrimidine-4-carboxamide]	87 nM	
